Values of other authors as cited in paper PMC9010276 (Clinical and Translational Science, 2021).
Like-named read-outs stand apart in the source and are kept apart here.

Legend:
[1] = studies with registered drugs

For `Nc1[nH]ncc1-c1cc(Cl)ccc1Oc1cc(F)c(S(=O)(=O)Nc2cscn2)cc1Cl` [PF‐05089771], the “Skin rash after administration” value (after multiple dosing at higher dose levels) is given as “mild skin rash”.

In the case of `COC[C@@H](NC(C)=O)C(=O)NCc1ccccc1` [lacosamide], the “Analgesic effects on experimental pain tests” value (“Analgesic effects” for short) [1] is given as “limited and variable analgesic effects”.

For `CCN(CC)CC(=O)Nc1c(C)cccc1C` [lidocaine], the “Analgesic effects” value [1] is listed as “limited and variable analgesic effects”.

In the case of `Cc1cccc(C)c1OCC(C)N` (stereo not drawn) [mexiletine], the “Skin rash after administration” value (nonselective Nav inhibitors) is given as “mild skin rash” and the “Analgesic effects” value [1] is given as “limited and variable analgesic effects”.

In the case of `O=C1NC(=O)C(c2ccccc2)(c2ccccc2)N1` [phenytoin], the “Skin rash after administration” value (nonselective Nav inhibitors) is listed as “mild skin rash”.
